The source of these data is patent publication US11524940B1, “Inhibitors of cysteine proteases and methods of use thereof” (priority 2020, dated 2022).

For the test, the target named is 229E Mpro (Human coronavirus 229E (HCoV-229E), UniProt P0C6X1). The test is described as follows: 229E Mpro activity. Format: biochemical.

pEC50: −log10 of the molar value. Read-outs that look alike come from different tables or passages of the source.

229E Mpro, sequence (P0C6X1 2966-3267 limits assumed): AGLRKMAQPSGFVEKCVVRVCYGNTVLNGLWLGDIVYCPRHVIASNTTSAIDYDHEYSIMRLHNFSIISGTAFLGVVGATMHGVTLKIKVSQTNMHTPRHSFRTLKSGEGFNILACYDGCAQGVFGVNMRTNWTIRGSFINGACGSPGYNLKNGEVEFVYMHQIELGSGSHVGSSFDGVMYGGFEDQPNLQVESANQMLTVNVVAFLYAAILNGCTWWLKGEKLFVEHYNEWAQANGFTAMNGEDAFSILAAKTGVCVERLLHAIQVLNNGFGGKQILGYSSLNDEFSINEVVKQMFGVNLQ
Procedure: Compounds are assayed using standard methods to assess compound activity and IC50. […] The assay buffer contains 20 mM of Tris-HCl (pH 7.3), 100 mM of NaCl, 1 mM of EDTA, 5mM of TCEP and 0.1% BSA.

The pEC50 is −log10 of the EC50, conventionally taken in molar units. Turning to `COc1cccc2[nH]c(C(=O)N[C@H](CN[C@H](C#N)C[C@@H]3CCNC3=O)CC(C)(C)C)cc12` [Compound 659, N-[(1S)-1-[[[(1S)-1-cyano-2-[(3S)-2-oxopyrrolidin-3-yl]ethyl]amino]methyl]-3,3-dimethyl-butyl]-4-methoxy-1H-indole-2-carboxamide], the pEC50 (read-out: 229E Mpro EC50) was less than 4.52.

For `COc1cccc2[nH]c(C(=O)N[C@@H](CC(C)(C)F)C(=O)N[C@H](C#N)C[C@@H]3CCCNC3=O)cc12` [Compound 667, N-[(1S)-1-[[(1S)-1-cyano-2-[(3S)-2-oxo-3-piperidyl]ethyl]carbamoyl]-3-fluoro-3-methyl-butyl]-4-methoxy-1H-indole-2-carboxamide], under “read-out: 229E Mpro EC50”, the pEC50 is more than 5.70.

For `N#C[C@H](C[C@@H]1CCCNC1=O)NC(=O)[C@H](CC1CC1)NC(=O)c1cc2c(Cl)cncc2[nH]1` [Compound 669, 4-chloro-N-((S)-1-(((S)-1-cyano-2-((S)-2-oxopiperidin-3-yl)ethyl)amino)-3-cyclopropyl-1-oxopropan-2-yl)-1H-pyrrolo[2,3-c]pyridine-2-carboxamide], under “read-out: 229E Mpro EC50”, the pEC50 is more than 5.70.

As to `N#C[C@H](C[C@@H]1CCNC1=O)NC(=O)[C@H](CC1CC1)NC(=O)c1cc2c(Cl)ccc(Cl)c2[nH]1` [Compound 691, 4,7-dichloro-N-[(1S)-2-[[(1S)-1-cyano-2-[(3S)-2-oxopyrrolidin-3-yl]ethyl]amino]-1-(cyclopropylmethyl)-2-oxo-ethyl]-1H-indole-2-carboxamide], under “read-out: 229E Mpro EC50”, the pEC50 was more than 5.70.

On to `COc1cc(Cl)c2[nH]c(C(=O)N[C@@H](CC3CC3)C(=O)N[C@H](C#N)C[C@@H]3CCNC3=O)cc2c1` [Compound 695, 7-chloro-N-[(1S)-2-[[(1S)-1-cyano-2-[(3S)-2-oxopyrrolidin-3-yl]ethyl]amino]-1-(cyclopropylmethyl)-2-oxo-ethyl]-5-methoxy-1H-indole-2-carboxamide], for which the pEC50 (read-out: 229E Mpro EC50) was more than 5.70.

Take `N#C[C@H](C[C@@H]1CCCNC1=O)NC(=O)[C@H](CC1CC1)NC(=O)c1cc2ccc(Cl)c(Cl)c2[nH]1` [Compound 727, 6,7-dichloro-N-[(1S)-2-[[(1S)-1-cyano-2-[(3S)-2-oxo-3-piperidyl]ethyl]amino]-1-(cyclopropylmethyl)-2-oxo-ethyl]-1H-indole-2-carboxamide]: under “read-out: 229E Mpro EC50”, the negative logarithm of the EC50 (pEC50) was more than 5.70.

`COc1cccc2[nH]c(C(=O)N[C@H](CC(C)C)C(=O)N[C@@H](CC3CCNC3=O)C(=O)CO)cc12` (stereo partly drawn) [Compound 740, N-[(1R)-1-[[(1S)-3-hydroxy-2-oxo-1-[[(3S)-2-oxopyrrolidin-3-yl]methyl]propyl]carbamoyl]-3-methyl-butyl]-4-methoxy-1H-indole-2-carboxamide]: the pEC50 (229E Mpro EC50) was 4.52 to 5.00.

In the case of `COc1cccc2[nH]c(C(=O)N[C@@H](CC(C)C)C(=O)N[C@@H](C[C@@H]3CCNC3=O)C(=O)CO)cc12` [Compound 741, N-[(1S)-1-[[(1S)-3-hydroxy-2-oxo-1-[[(3S)-2-oxopyrrolidin-3-yl]methyl]propyl]carbamoyl]-3-methyl-butyl]-4-methoxy-1H-indole-2-carboxamide], under “read-out: 229E Mpro EC50”, the pEC50 is more than 5.70.

Consider `CC(C)(C)C[C@H](NC(=O)c1cc2c(Cl)cccc2[nH]1)C(=O)N[C@H](C#N)C[C@@H]1CCCNC1=O` [Compound 793, 4-chloro-N-[(1S)-1-[[(1S)-1-cyano-2-[(3S)-2-oxo-3-piperidyl]ethyl]carbamoyl]-3,3-dimethyl-butyl]-1H-indole-2-carboxamide], for which, under “read-out: 229E Mpro EC50”, the pEC50 was more than 5.70.

On to `CC(C)(C)C[C@H](NC(=O)c1cc2c(Cl)cc(Cl)cc2[nH]1)C(=O)N[C@H](C#N)C[C@@H]1CCCNC1=O` [Compound 795, 4,6-dichloro-N-((S)-1-(((S)-1-cyano-2-((S)-2-oxopiperidin-3-yl)ethyl)amino)-4,4-dimethyl-1-oxopentan-2-yl)-1H-indole-2-carboxamide], for which the pEC50 (read-out: 229E Mpro EC50) is more than 5.70.

`COc1ccc2[nH]c(C(=O)N[C@@H](CC(C)(C)C)C(=O)N[C@H](C#N)C[C@@H]3CCCNC3=O)cc2c1Cl` [Compound 808, 4-chloro-N-[(1S)-1-[[(1S)-1-cyano-2-[(3S)-2-oxo-3-piperidyl]ethyl]carbamoyl]-3,3-dimethyl-butyl]-5-methoxy-1H-indole-2-carboxamide]: under “read-out: 229E Mpro EC50”, the negative logarithm of the EC50 (pEC50) was more than 5.70.

Take `COc1cc(Cl)c2[nH]c(C(=O)N[C@@H](CC(C)(C)C)C(=O)N[C@H](C#N)C[C@@H]3CCCNC3=O)cc2c1` [Compound 810, 7-chloro-N-[(1S)-1-[[(1S)-1-cyano-2-[(3S)-2-oxo-3-piperidyl]ethyl]carbamoyl]-3,3-dimethyl-butyl]-5-methoxy-1H-indole-2-carboxamide]: under “read-out: 229E Mpro EC50”, the pEC50 is more than 5.70.

With `N#C[C@H](C[C@@H]1CCCNC1=O)NC(=O)[C@H](CC1CC1)NC(=O)c1cc2c(Cl)cccc2[nH]1` [Compound 812, 4-chloro-N-[(1S)-2-[[(1S)-1-cyano-2-[(3S)-2-oxo-3-piperidyl]ethyl]amino]-1-(cyclopropylmethyl)-2-oxo-ethyl]-1H-indole-2-carboxamide], the pEC50 (read-out: 229E Mpro EC50) is more than 5.70.

As to `CC(C)(C)C[C@H](NC(=O)c1cc2c(F)cccc2[nH]1)C(=O)N[C@H](C#N)C[C@@H]1CCCNC1=O` [Compound 816], where the note is “read-out: 229E Mpro EC50”, the pEC50 was less than 4.52.

In the case of `COc1ccc(F)c2[nH]c(C(=O)N[C@@H](CC3CC3)C(=O)N[C@H](C#N)C[C@@H]3CCCNC3=O)cc12` [Compound 820, N-((S)-1-(((S)-1-cyano-2-((S)-2-oxopiperidin-3-yl)ethyl)amino)-3-cyclopropyl-1-oxopropan-2-yl)-7-fluoro-4-methoxy-1H-indole-2-carboxamide], the pEC50 (read-out: 229E Mpro EC50) is more than 5.70.

Turning to `N#C[C@H](C[C@@H]1CCCNC1=O)NC(=O)[C@H](CC1CC1)NC(=O)c1cc2c(Cl)c(F)ccc2[nH]1` [Compound 822, 4-chloro-N-[(1S)-2-[[(1S)-1-cyano-2-[(3S)-2-oxo-3-piperidyl]ethyl]amino]-1-(cyclopropylmethyl)-2-oxo-ethyl]-5-fluoro-1H-indole-2-carboxamide], under “read-out: 229E Mpro EC50”, the pEC50 is more than 5.70.

For `N#C[C@H](C[C@@H]1CCCNC1=O)NC(=O)[C@H](CC1CC1)NC(=O)c1cc2c(Cl)cc(F)cc2[nH]1` [Compound 824, 4-chloro-N-[(1S)-2-[[(1S)-1-cyano-2-[(3S)-2-oxo-3-piperidyl]ethyl]amino]-1-(cyclopropylmethyl)-2-oxo-ethyl]-6-fluoro-1H-indole-2-carboxamide], the pEC50 (read-out: 229E Mpro EC50) was more than 5.70.

Take `N#C[C@H](C[C@@H]1CCCNC1=O)NC(=O)[C@H](CC1CC1)NC(=O)c1cc2c(Cl)ccc(F)c2[nH]1` [Compound 826]: for the setting “read-out: 229E Mpro EC50”, the pEC50 was more than 5.70.

Regarding `N#C[C@H](C[C@@H]1CCCNC1=O)NC(=O)[C@H](CC1CC1)NC(=O)c1cc2ccc(F)c(Cl)c2[nH]1` [Compound 828, 7-chloro-N-[(1S)-2-[[(1S)-1-cyano-2-[(3S)-2-oxo-3-piperidyl]ethyl]amino]-1-(cyclopropylmethyl)-2-oxo-ethyl]-6-fluoro-1H-indole-2-carboxamide], the pEC50 (read-out: 229E Mpro EC50) is more than 5.70.

Regarding `N#C[C@H](C[C@@H]1CCCNC1=O)NC(=O)[C@H](CC1CC1)NC(=O)c1cc2cc(F)cc(Cl)c2[nH]1` [Compound 830, 7-chloro-N-((S)-1-(((S)-1-cyano-2-((S)-2-oxopiperidin-3-yl)ethyl)amino)-3-cyclopropyl-1-oxopropan-2-yl)-5-fluoro-1H-indole-2-carboxamide], where the note is “read-out: 229E Mpro EC50”, the pEC50 was more than 5.70.

With `N#C[C@H](C[C@@H]1CCCNC1=O)NC(=O)[C@H](CC1CC1)NC(=O)c1cc2c(F)ccc(Cl)c2[nH]1` [Compound 832, 7-chloro-N-[(1S)-2-[[(1S)-1-cyano-2-[(3S)-2-oxo-3-piperidyl]ethyl]amino]-1-(cyclopropylmethyl)-2-oxo-ethyl]-4-fluoro-1H-indole-2-carboxamide], the pEC50 (read-out: 229E Mpro EC50) was more than 5.70.

`N#C[C@H](C[C@@H]1CCCNC1=O)NC(=O)[C@H](CC1CC1)NC(=O)c1cc2c(F)cc(Cl)cc2[nH]1` [Compound 838, 6-chloro-N-[(1S)-2-[[(1S)-1-cyano-2-[(3S)-2-oxo-3-piperidyl]ethyl]amino]-1-(cyclopropylmethyl)-2-oxo-ethyl]-4-fluoro-1H-indole-2-carboxamide]: where the note is “read-out: 229E Mpro EC50”, the pEC50 was more than 5.70.

As to `N#C[C@H](C[C@@H]1CCCNC1=O)NC(=O)[C@H](CC1CC1)NC(=O)c1cc2c(Cl)cc(Cl)cc2[nH]1` [Compound 840, 4,6-dichloro-N-[(1S)-2-[[(1S)-1-cyano-2-[(3S)-2-oxo-3-piperidyl]ethyl]amino]-1-(cyclopropylmethyl)-2-oxo-ethyl]-1H-indole-2-carboxamide], for the setting “read-out: 229E Mpro EC50”, the pEC50 was more than 5.70.

Regarding `N#C[C@H](C[C@@H]1CCCNC1=O)NC(=O)[C@H](CC1CC1)NC(=O)c1cc2cc(Cl)cc(Cl)c2[nH]1` [Compound 842, 5,7-dichloro-N-[(1S)-2-[[(1S)-1-cyano-2-[(3S)-2-oxo-3-piperidyl]ethyl]amino]-1-(cyclopropylmethyl)-2-oxo-ethyl]-1H-indole-2-carboxamide], under “read-out: 229E Mpro EC50”, the pEC50 is more than 5.70.

In the case of `COc1ccc(Br)c2[nH]c(C(=O)N[C@@H](CC3CC3)C(=O)N[C@H](C#N)C[C@@H]3CCCNC3=O)cc12` [Compound 846], the pEC50 (read-out: 229E Mpro EC50) was more than 5.70.

Turning to `N#C[C@H](C[C@@H]1CCCNC1=O)NC(=O)[C@H](CC1CC1)NC(=O)c1[nH]c2cc(Br)ccc2c1F` [Compound 848, 6-bromo-N-[(1S)-2-[[(1S)-1-cyano-2-[(3S)-2-oxo-3-piperidyl]ethyl]amino]-1-(cyclopropylmethyl)-2-oxo-ethyl]-3-fluoro-1H-indole-2-carboxamide], the pEC50 (read-out: 229E Mpro EC50) was more than 5.70.

For `N#C[C@H](C[C@@H]1CCCNC1=O)NC(=O)[C@H](CC1CC1)NC(=O)c1cc2ccc(F)c(Br)c2[nH]1` [Compound 850], for the setting “read-out: 229E Mpro EC50”, the pEC50 was 4.52 to 5.00.

As for `N#C[C@H](C[C@@H]1CCCNC1=O)NC(=O)[C@H](CC1CC1)NC(=O)c1cc2cc(F)cc(Br)c2[nH]1` [Compound 852, 7-bromo-N-((S)-1-(((S)-1-cyano-2-((S)-2-oxopiperidin-3-yl)ethyl)amino)-3-cyclopropyl-1-oxopropan-2-yl)-5-fluoro-1H-indole-2-carboxamide], the pEC50 (read-out: 229E Mpro EC50) was more than 5.70.

As for `N#C[C@H](C[C@@H]1CCCNC1=O)NC(=O)[C@H](CC1CC1)NC(=O)c1cc2c(F)ccc(Br)c2[nH]1` [Compound 854], the pEC50 (read-out: 229E Mpro EC50) was more than 5.70.
